Experimental data as given in ChEMBL document CHEMBL1157955, “Anti-inflammatory neolignans from Piper kadsura” (J Nat Prod, 2006).

Experiment: Antiinflammatory activity in human PMN assessed as inhibition of Phorbol-12-myristate-13-acetate-induced ROS production
Format: functional

| SMILES | IC50 [µM] |
| --- | --- |
| C=CCC1=CC(OC)(/C(C)=C/c2ccc3c(c2)OCO3)C(OC)=CC1=O (stereo not given) [FUTOQUINOL] | 13.1 |
| O=C(/C=C/c1ccc(O)cc1)NCCc1ccc(O)cc1 [N-P-COUMAROYL TYRAMINE] | 8.4 |
| C=CCC1=C[C@@](OC)(/C(C)=C/c2ccc(O)c(OC)c2)C(OC)=CC1=O [PIPERKADSIN A] | 4.3 |
| C=CCC1([C@H](C)[C@@H](OC(C)=O)c2ccc(OC)c(OC)c2)C=C(OC)C(OC)=CC1=O (stereo not given in full) [PIPERKADSIN B] | 12.2 |
| COc1c(O)cc2c3c(cc4ccccc4c13)N(OC)C2=O [PIPERLACTAM S] | 7 |
